The test system of one assay is skin of the subject. Put plainly: Determination of effective treatment time for PDT/IPL/RF rejuvenation therapy after ALA application. It counts as in vivo, human. The text has this: ALA, was applied to the skin of the subject. The light used for PDT was IPL comprising a variety of wavelengths, with an intensity of 26 J. PDT/IPL/RF was applied at various time points following ALA application. […] The increase in efficacy leveled off at hours 5 and 6.
A 4-hour treatment with ALA was required for significant efficacy of PDT/IPL/RF. A time course of this length may be accompanied by increases in erythema and other side effects. In order to minimize side effects, it was determined that a 1-hour treatment was preferred. The 1-hour treatment requires repeated administrations for maximum efficacy, but prevents skin breakdown. With its potential for increased side effects, the 4-hour treatment should be reserved for severe premalignant cases only.

Assay [1] has as its system skin of patients (keratoses, sun damage, rosacea, melasma, wrinkles). Put plainly: Treatment of patients with PDT/IPL/RF after ALA application. It counts as in vivo, human. The method, then: Four patients were treated with a combination of PDT, IPL, and RF. ALA was applied to the patients at time 0.
Patient 1 received one PDT/RF/IPL peel treatment at full energy (26 J) 4 hours after application of ALA.
Patients 2, 3, and 4 received four sessions of PDT/RF/IPL photofacial treatments at full energy (26 J) 1 hour after application of ALA.

The mark [2] stands for this setting: Patient 1, one PDT/RF/IPL peel treatment at 26 J, 4 hours after ALA.

Consider `NCC(=O)CCC(=O)O` [ALA, 5-aminolevulinic acid], for which the “efficacy of PDT/IPL/RF versus standard IPL/RF alone” value in the assay with skin of the subject (PDT/IPL/RF applied 15 minutes after ALA application, IPL 26 J, human test subject) is “no more efficacious than standard IPL/RF alone”. Moreover, the “efficacy of PDT/IPL/RF over RF alone” value in the assay on skin of the subject (PDT/IPL/RF applied 30 minutes after ALA application, IPL 26 J) was “minimal increase in efficacy”; in the assay with skin of the subject (PDT/IPL/RF applied 45 minutes after ALA application, IPL 26 J) it was “minimal increase in efficacy”. For the same molecule, the “efficacy of PDT/IPL/RF” value with skin of the subject (PDT/IPL/RF applied 1 hour after ALA application, IPL 26 J) is “noticeable increase in efficacy”; with skin of the subject (PDT/IPL/RF applied 2 hours after ALA application, IPL 26 J) it was “noticeable increase in efficacy”; in the assay on skin of the subject (PDT/IPL/RF applied 4 hours after ALA application, IPL 26 J) it was “largest increase of any point in time”; in the assay with skin of the subject (PDT/IPL/RF applied 5 hours after ALA application, IPL 26 J) it was “leveled off”; in the assay on skin of the subject (PDT/IPL/RF applied 6 hours after ALA application, IPL 26 J), “leveled off”. Also, the “ALA treatment time required for significant efficacy of PDT/IPL/RF” value with skin of the subject (human test subject) came out at 4 h. The effect on lentigines result in assay [1] (4-hour treatment, Patient 1) was “selective destruction of lentigines”. Moreover, the “effect on atypia and keratoses” value in assay [1] (setting [2]) was “significant darkening and slough of atypia and keratoses”. For the same molecule, the effect on wrinkles entry in assay [1] (setting [2]) is reported as “diminution of wrinkles”. In assay [1] (setting [2]), the skin rejuvenation result is reported as “generalized skin rejuvenation”. The “effect on sun damage, rosacea, and melasma” value in assay [1] (Patients 2, 3 and 4, four sessions PDT/RF/IPL photofacial at 26 J, 1 hour after ALA) was “decrease in sun damage, rosacea, and melasma”.
